Legend:
hydroxyl radical = assay: Hydroxyl radical formation in the Fenton reagent (chemiluminescence); type: biochemical
Procedure: Active oxygen forms (AOF) of different nature were generated in the following systems: • A. Hydroxyl radical - in the mixture of FeSO4 with H2O2 (the Fenton reagent) [Halliwell B. Superoxide-dependent formation of hydroxyl radicals in the presence of iron salts. […] Incubation medium comprised 5 mM KH2PO4 (pH 7.4); 5 mM FeSO4; 2 mM luminol. H2O2 at final concentration 5 mM was introduced into a cuvette through a dispencer following background luminescence recording of the reagents' mixture. 5 to 10 ml of the test compounds dissolved in water were at needed concentration introduced into a cuvette.
CL flash recording duration after mixing ingredients, depended on a particular process kinetics. For each system, CL light sum (mV) was determined in the control samples without preparations (I-) and in samples comprising respective concentrations of preparations (I+). To estimate CL inhibition (activation) degree, the I+/I- ratio (in relative units) was found in the studied systems.
When H2O2 was introduced into phosphate buffer comprising iron sulfate, CL flash occured which was caused by formation of predominantly hydroxyl radical in the reaction mixture.

mongrel female rats = assay: Hepatoprotective activity: subchronic liver lesion (hepatitis) with CCl4; type: in vivo; details: for Cholesterol level, mg/100 ml VLDL-CS / Cholesterol level, mg/100 ml LDL-CS / Cholesterol level, mg/100 ml HDL-CS / Cholesterol level, mg/100 ml total-CS / TG level, mg/100ml / ALT, nM/dl / AST, nM/dl / Hepatic MDA, nM/l / Serum MDA, nM/l: rats, CCl4 hepatitis; for Cholesterol level, mg/100 ml VLDL-CS / Cholesterol level, mg/100 ml LDL-CS / Cholesterol level, mg/100 ml HDL-CS / Cholesterol level, mg/100 ml total-CS / TG level, mg/100ml / ALT, nM/dl / AST, nM/dl: blood serum; for Cholesterol level, mg/100 ml VLDL-CS: TG/5; for Cholesterol level, mg/100 ml LDL-CS: calculated by formula; for ALT, nM/dl / AST, nM/dl: oral 8 days
Procedure: Hepatoprotective properties of the compounds were studied on a model of subchronic liver lesion (hepatitis) with carbon quadrichloride.
70 mongrel female rats with initial body mass 190-200 g fed a standard vivarium ration, were used in experiment. Animals were divided into 7 groups (10 rats each): • Group 1 - control one; during the first four days of experiment animals were subcutaneously injected 0.2 ml vaseline oil; • Group 2 - during the first four days animals were subcutaneously injected 50% CCl4 solution in vaseline oil at a rate of 0.1 ml per 100 g body mass; • Group 3 - Legalon in a starch gel was administered orally for 8 days at a dose 30 mg/kg against the background of CCl4 administration; […] , resepectively, was administered in a way similar to group III; […] , resepectively, was administered in a way similar to group III.
The test compounds and Legalon were administered to animals 1 hour prior to CCl4 administration. 24 hours after the last administration of the drugs, animals were decapitated.
Activity of blood serum transaminases ALT and AST was assessed using the conventional Frenkel-Rightman method [Laboratory examination methods in the clinic. Ed. by Menshikov V.V. Moscow, Meditsina publishers (1969), 302 pp.].
The published method [Rodionova L.P. Modification of blood serum trigyceride level determination method. Laboratomoye delo (Laboratory Matter) (1980), No 5, pp. 297-299] was used to determine blood serum TG level.
Blood serum LP final product MDA was determined using the published method [Korobeinikova E.N. Modification of lipid peroxydation product determination in reaction with thiobarbituric acid. Laboratomoye delo (Laboratory Matter) (1989), No 7, pp. 8-10]. Concentration of TBA-active products was calculated using regression equation: C = 0.21 + 0.26D, [formula] where C - concentration of TBA-active products (in nM MDA per 1 ml of serum), D - index D535 -D580 (in optic density units).
Total hepatic lipids were extracted using the modified Folch method [Cates M. Technology of Lipidology. Moscow, Mir publishers (1975), pp. 74-76]. Quantative content of lipid fractions was assessed with thin layer chromatography method (TLC) using the system of solvents hexane:diethyl ether:acetic acid at ratio 80:20:2. Zones of individual lipid fractions were determined using 10% alcohol solution of phosphoromolyobdenic acid which following elution were spectrophotometrically analysed at 600 nm.
Hepatic MDA level was determined using the published method [Stalnaya I.D., Garishvili T.G. Malonic dialdehyde determination method using thiobarbituric acid. In: Modem methods in biochemistry. Moscow, Meditsina publishers (1977), pp. 66-69]. MDA quantity was calculated using molar extinction coefficient value of stained trimethynic complex formed by MDA with two TBA molecules: E = 1.56 × 10^5 (cm)^-1 × M^-1 [formula]

[1] = system: progesterone, 17-oxyprogesterone, 11-desoxycortisol and cortisol; assay: Blood serum hormone levels (radioimmunoassay); type: in vivo, guinea pigs; details: intact and sensitized guinea pigs, compared with compound XLIV
Procedure: Sensibilization of animals was done as described in example 27. Blood for hormonal level determination was sampled in animals before commencement of experiment and 18 hours after the last drug administration from 10 to 11 hours. […] A comparative hormonal state analysis was carried out by individual changes in each animal in a group. Mean parametric values expressed in nM/l, are presented by the groups in table 21.
Blood serum levels of the hormones progesterone, 17-oxyprogesterone, 11-desoxycortisol and cortisol were determined by radioimmunoassay using the Beloris company kits. Hormone concentration in samples was determined by the relation graph between the activity of a precipitated bound labelled hormone and hormone concentration in the calibration samples.

peritoneal macrophages = assay: Activity of peritoneal macrophages (NBT reduction test); type: in vivo, mongrel white male mice
Procedure: Change in the activity of peritoneal macrophages (PM) as effected by the test compounds was studied.
Experiments were carried out on mongrel white male mice with initial body mass 20-22 g. Each group included 10 animals. Compounds III, VI, XLIV were dissolved in normal saline (NS). The test compounds were administered to animals orally for three days at doses 50 and 500 µg/kg. Animals of the control group were given equal volume of NS. Mice were sacrified 20 hours after the last compound administration, peritoneal cavity was washed with 1.5 ml Henks solution comprising 5 U/ml heparine. 0.1 ml of wash solution were incubated for 30 minutes at 37°C with 0.1 ml 0.2% nitroblue tetrasolium (NBT) solution, then smears were prepared. Nuclei were additionaly stained with o.1% neutral red solution. Results were expressed in percent of active cells [Klimov V.V., Kolovkina T.V. Nitroblue tetrasolium reduction test stimulated with pyrogenal. Laborotornoye delo (Laboratory matter) (1982), No 10, pp. 624-625]. […]

With O=C(O)CCCC(=O)NCCc1c[nH]cn1 [compound III, N-GLUTARYLHISTAMINE] the “relative effect: I+/I-” value (hydroxyl radical; 1 µM) was 0.98, the “Chemiluminiscence intensity (mV) + σn-1” value (hydroxyl radical; 1 µM, control of the series as in the table) was 1100 ± 84 mV and the “relative effect: I+/I-” value (hydroxyl radical; 0.01 mM) was 0.87. The “Chemiluminiscence intensity (mV) + σn-1” value (hydroxyl radical; 0.01 mM, control of the series as in the table) was 972 ± 79 mV, the “relative effect: I+/I-” value (hydroxyl radical; 0.1 mM) was 0.64 and the “Chemiluminiscence intensity (mV) + σn-1” value (hydroxyl radical; 0.1 mM, control of the series as in the table) was 719 ± 71 mV. The “relative effect: I+/I-” value (hydroxyl radical; 1 mM) was 0.15, the “Chemiluminiscence intensity (mV) + σn-1” value (hydroxyl radical; 1 mM, control of the series 7839 ± 171, 1120 ± 163, 4974 ± 283 or 1332 ± 172) was 164 ± 14 mV and the “Lipid composition (in percent of total lipids) FCS” value (mongrel female rats; 5e-05 mg/kg) was 20.3 ± 0.8 p<0.05% of total lipids. The “Lipid composition (in percent of total lipids) Phospholipids” value (mongrel female rats; 5e-05 mg/kg) was 24.4 ± 0.7 p<0.05% of total lipids, the “Lipid composition (in percent of total lipids) Triglycerides” value (mongrel female rats; 5e-05 mg/kg) was 35.5 ±1.1% of total lipids and the “Lipid composition (in percent of total lipids) FCS” value (mongrel female rats; 0.0005 mg/kg) was 18.9 ± 0.7% of total lipids. The “Lipid composition (in percent of total lipids) Phospholipids” value (mongrel female rats; 0.0005 mg/kg) was 23.8 ± 1.0 p<0.05% of total lipids, the “Lipid composition (in percent of total lipids) Triglycerides” value (mongrel female rats; 0.0005 mg/kg) was 35.3 ± 0.7% of total lipids and the “Cholesterol level, mg/100 ml VLDL-CS” value (mongrel female rats; 0.05 µg/kg) was 17.7 ± 2.0 mg/100 ml. For the same compound, the “Cholesterol level, mg/100 ml VLDL-CS” value (mongrel female rats; 0.5 µg/kg) was 15.8 ± 1.0 p<0.05 mg/100 ml, the “Cholesterol level, mg/100 ml LDL-CS” value (mongrel female rats; 0.05 µg/kg) was 19.6 ± 1.4 p<0.01 mg/100 ml and the “Cholesterol level, mg/100 ml LDL-CS” value (mongrel female rats; 0.5 µg/kg) was 12.0 ± 0.6 mg/100 ml. The “Cholesterol level, mg/100 ml HDL-CS” value (mongrel female rats; 0.05 µg/kg) was 52.3 ± 2.9 mg/100 ml, the “Cholesterol level, mg/100 ml total-CS” value (mongrel female rats; 0.05 µg/kg) was 89.5 ± 3.8 mg/100 ml and the “TG level, mg/100ml” value (mongrel female rats; 0.05 µg/kg) was 88.0 ± 10.2 mg/100ml. The “Cholesterol level, mg/100 ml HDL-CS” value (mongrel female rats; 0.5 µg/kg) was 59.3 ± 2.6 mg/100 ml, the “Cholesterol level, mg/100 ml total-CS” value (mongrel female rats; 0.5 µg/kg) was 87.0 ± 2.6 mg/100 ml and the “TG level, mg/100ml” value (mongrel female rats; 0.5 µg/kg) was 78.6 ± 5.4 p<0.05 mg/100ml. The “ALT, nM/dl” value (mongrel female rats; daily dose 0.05 mg/kg) was 624 ± 31 nM/dl, the “AST, nM/dl” value (mongrel female rats; daily dose 0.05 mg/kg) was 478 ± 26 nM/dl and the “ALT, nM/dl” value (mongrel female rats; daily dose 0.50 mg/kg) was 609 ± 42 nM/dl. The “AST, nM/dl” value (mongrel female rats; daily dose 0.50 mg/kg) was 522 ± 33 nM/dl, the “Hepatic MDA, nM/l” value (mongrel female rats; 0.05 mg/kg) was 5.00 ± 0.15 p<0.05 nM/l and the “Serum MDA, nM/l” value (mongrel female rats; 0.05 mg/kg) was 5.86 ± 0.70 nM/l. For the same compound, the “Hepatic MDA, nM/l” value (mongrel female rats; 0.50 mg/kg) was 4.60 ± 0.52 p<0.05 nM/l, the “Serum MDA, nM/l” value (mongrel female rats; 0.50 mg/kg) was 5.77 ± 0.15 p<0.05 nM/l and the hormonal state changes [1] was “the same hormonal state changes were observed”. The “portion of active macrophages” value (peritoneal macrophages; mice, oral three days at 50 and 500 µg/kg) was “pronounced in study of the both substance doses”, the “Activity of macrophages, percent” value (peritoneal macrophages; score 0 (no formazane inclusions, inactive PM), 50 µg/kg orally for three days) was 11.6 ± 2.8% and the “Activity of macrophages, percent” value (peritoneal macrophages; score 0 (no formazane inclusions, inactive PM), 500 µg/kg orally for three days) was 12.8 ± 1.3%. The “Activity of macrophages, percent” value (peritoneal macrophages; score 1 (single formazane inclusions), 50 µg/kg orally for three days) was 27.5 ± 2.5%, the “Activity of macrophages, percent” value (peritoneal macrophages; score 1 (single formazane inclusions), 500 µg/kg orally for three days) was 31.3 ± 2.3% and the “Activity of macrophages, percent” value (peritoneal macrophages; score 2 (inclusions fill up to 1/3 of PM cytoplasm), 50 µg/kg orally for three days) was 44.6 ± 1.9%. The “Activity of macrophages, percent” value (peritoneal macrophages; score 2 (inclusions fill up to 1/3 of PM cytoplasm), 500 µg/kg orally for three days) was 46.0 ± 2.6%, the “Activity of macrophages, percent” value (peritoneal macrophages; score 3 (inclusions fill up to 1/2 of PM cytoplasm), 50 µg/kg orally for three days) was 15.8 ± 3.3% and the “Activity of macrophages, percent” value (peritoneal macrophages; score 3 (inclusions fill up to 1/2 of PM cytoplasm), 500 µg/kg orally for three days) was 10.9 ± 2.1%.

From patent publication EP2229935A1, “Peptide derivatives or pharmaceutically acceptable salts thereof, method for producing the same, use of said derivatives and pharmaceutical composition” (Nebolsin, Vladimir Evgenievich, priority 1997, dated 1999)
